Experimental data reported in patent US12042492B2 (priority 2020, dated 2024).
Entries after “also recorded” stand apart in the source; their conditions may differ. Marks after values point to notes of the source that are not given here.

What was measured:
BACE1 = target: T1, BACE1 (Mus musculus, UniProt P56818); experiment: Sandwich ELISA of BACE1 activity in mAPP N2a cells; assay type: cell-based; details: mAPP cells treated with ligand 1 relative to untreated mAPP cells; P=0.001
T1 construct: endogenous in cells; host or cells: N2a mouse neuroblastoma cells (ATCC) transfected with mutant APP Swe/Ind cDNA
T1 sequence (P56818 46-501): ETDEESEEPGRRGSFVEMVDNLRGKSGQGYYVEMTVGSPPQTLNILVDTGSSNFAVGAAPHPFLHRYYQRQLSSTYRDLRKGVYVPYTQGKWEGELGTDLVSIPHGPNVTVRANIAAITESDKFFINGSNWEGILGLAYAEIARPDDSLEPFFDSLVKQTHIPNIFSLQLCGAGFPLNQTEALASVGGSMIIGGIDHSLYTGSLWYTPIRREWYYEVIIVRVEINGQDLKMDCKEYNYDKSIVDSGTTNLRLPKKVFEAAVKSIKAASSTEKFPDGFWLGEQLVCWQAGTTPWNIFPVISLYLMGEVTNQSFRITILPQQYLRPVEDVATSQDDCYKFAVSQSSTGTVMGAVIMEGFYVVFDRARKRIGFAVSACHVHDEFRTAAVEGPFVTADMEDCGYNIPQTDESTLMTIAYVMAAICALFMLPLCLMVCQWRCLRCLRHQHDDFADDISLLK
Description: ELISA Ligand based inhibition of BACE1 activity, Aβ 40 and 42. BACE1 activity, Levels of Aβ40 and 42. To determine whether ligand 1 lowers BACE1 activity and reducing the Aβ40 and Aβ42 levels, the inventors measured BACE1 activity, Aβ40 and Aβ42 levels in mutant APP cells (N2a+mutant cDNA transfected) treated with ligand 1 using Sandwich ELISA.
The N2a cells grown for 6 days in a serum-free medium (1:1 mixture of DMEM and OptiMEM, plus penicillin and streptomycin (Invitrogen, Carlsbad, CA, USA) until the cells developed neuronal processes. As shown in (FIG. 10), these cells were used for 4 groups—one control group and 3 treatment groups. 1) untreated N2a cells (the control group), 2) N2a cells treated with ligand 1 (N2a+ligand 1), 3) N2a cells transfected mAPP with the (lipofectamine) (20 μM final concentration for 6 hrs (mAPP), 4) N2a cells transfected with mAPP cDNA for 6 hrs, treated with ligand 1 (mAPP+ligand 1 treatment group), N2a cells treated with ligand 1 for 24 hrs and then treated with the mAPP cDNA for 6 hrs (ligand 1+mAPP treatment group). […]
ELISA Ligand based BACE1 inhibition of Aβ 40 and 42. […] For each sample, Aβ1-40 and Aβ1-42 were measured with commercial colorimetric ELISA kits (Biosource International, Camarillo, CA, USA) specific for human. […] Protein concentrations of the homogenates were determined following the […], and Aβ was expressed as pg Aβ/mg protein.

mAPP N2a cells = experiment: qRT-PCR mRNA expression in mAPP N2a cells treated with ligand 1; assay type: cell-based, mouse
Protocol: The N2a cells grown for 6 days in a serum-free medium (1:1 mixture of DMEM and OptiMEM, plus penicillin and streptomycin (Invitrogen, Carlsbad, CA, USA) until the cells developed neuronal processes. As shown in (FIG. 10), these cells were used for 4 groups—one control group and 3 treatment groups. 1) untreated N2a cells (the control group), 2) N2a cells treated with ligand 1 (N2a+ligand 1), 3) N2a cells transfected mAPP with the (lipofectamine) (20 μM final concentration for 6 hrs (mAPP), 4) N2a cells transfected with mAPP cDNA for 6 hrs, treated with ligand 1 (mAPP+ligand 1 treatment group), N2a cells treated with ligand 1 for 24 hrs and then treated with the mAPP cDNA for 6 hrs (ligand 1+mAPP treatment group). As shown in (FIG. 10), the inventors performed 4 independent cell cultures and treatments for all experiments (n=4).
mRNA levels of mitochondrial dynamics and mitochondrial biogenesis and synaptic genes. Using the reagent TriZol (Invitrogen), the inventors isolated total RNA from 4 independent treatments of N2a cells (n=4) from control (untreated N2a cells) and experimental treatments (N2a cells treated with Ligand 1; N2a cells transfected with mAPP; N2a cells transfected with mAPP and then treated with Ligand 1. Using primer express Software (Applied Biosystems), the inventors designed the oligonucleotide primers for the housekeeping genes β-actin, GDPH; APP-related genes (APP, BACE1 and PSN1); mitochondrial structural genes; fission (Drp1 and Fis1); fusion genes (MFN1, MFN2, Opa1) (54), mitochondrial biogenesis genes (PGC1α, Nrf1, Nrf2, and Tfam) (Manczak et al., 2019), and synaptic proteins (SYN, PSD95 and MAP2). The primer sequences and amplicon sizes are listed in (Table 1). With SYBR-Green chemistry-based quantitative real-time RT-PCR, the inventors measured mRNA expression of the genes mentioned above as described by Manczak et al. 2019(54). Briefly, 2 μg of DNAse-treated total RNA was used as starting material, to which the inventors added 1 μl of oligo (dT), 1 μl of 10 mM dNTPs, 4 μl of 5× first strand buffer, 2 μl of 0.1 M DTT, and 1 μl RNAse outout. The reagents RNA, dT), and dNTPs were mixed first, then heated at 65° C. for 5 min, and finally chilled on ice until the remaining components were added. The samples were incubated at 42° C. for 2 min, and then 1 μl of Superscript II (40 U/μl) was added. The samples were then incubated at 42° C. for 50 min, at which time the reaction was inactivated by heating at 70° C. for 15 min.
Quantitative real-time PCR amplification reactions were performed in N2a cells in an ABI Prism 7900 sequence detection system (Applied Biosystems, Foster City, CA) in a 25-μl volume of total reaction mixture. The reaction mixture consisted of 1×PCR buffer containing SYBR-Green; 3 mM MgCl2; 100 nm of each primer; 200 nm of dATP, dGTP, and dCTP each; 400 nm of dUTP; 0.01 U/μl of AmpErase UNG; and 0.05 U/μl of AmpliTaq Gold. A 20 ng cDNA template was added to each reaction mixture.
The CT-values of β-actin was tested to determine the unregulated endogenous reference gene in N2a cells that were treated with Aβ and protective molecules, and in untreated N2a cells. In the latter case, the CT-value was similar in untreated and N2a cells treated with MTAs and Aβ. The CT-value is an important quantitative parameter in real-time PCR analysis as described in Gutala and Reddy (2004) (55). All RT-PCR reactions were carried out in triplicate, with no template control. The PCR conditions were: 50° C. for 2 min and 95° C. for 10 min, followed by 40 cycles of 95° C. for 15 sec and 60° C. for 1 min. The fluorescent spectra were recorded during the elongation phase of each PCR cycle. To distinguish specific amplicons from non-specific amplifications, a dissociation curve was generated. […]

[1] = N2a + mAPP + ligand1 relative to mAPP N2a cells
[2] = N2a + mAPP + ligand1 relative to mAPP N2a cells, listed as ligand 1
[3] = N2a + mAPP + ligand1 relative to mAPP N2a cells, listed as ligand1
[4] = N2a + mAPP + ligand1 relative to mAPP N2a cells, negative = decrease
[5] = N2a + mAPP + ligand1 relative to untreated N2a cells
[6] = ligand 1 treated mAPP cells relative to mAPP cells, size of the decrease, P<0.05

Substance: [(6As,8S,10aS,12aS)-10a, 12a-dimethyl-2-oxo-3,4,4a,4b,5,6,6a,7,8,9,10,10b,11,12-tetradecahydro-1H-naphtho[2,1-f]quinolin-8-yl] 4-[4-[bis(2-chloroethyl)amino]phenyl]butanoate [Ligand 1]
- BACE1 activity (BACE1): significantly lower; also recorded: significantly reduced
- mRNA fold change Mfn1 (mAPP N2a cells; [1]): 1.3 fold
- mRNA fold change OPA1 (mAPP N2a cells; [1]): 1.2 fold
- mRNA fold change Mfn2 (mAPP N2a cells; [2]): 1.5 fold
- mRNA fold change Nrf1 (mAPP N2a cells; [2]): 2.1 fold
- mRNA fold change Nrf2 (mAPP N2a cells; [2]): 2.1 fold
- mRNA fold change PGC1a (mAPP N2a cells; [2]): 2.0 fold
- mRNA fold change PSD95 (mAPP N2a cells; [2]): 1.3 fold
- mRNA fold change Synaptophysin (mAPP N2a cells; [2]): 1.9 fold
- mRNA fold change TFAM (mAPP N2a cells; [2]): 1.8 fold
- mRNA fold change Mfn2 (mAPP N2a cells; [3]): 1.5* fold
- mRNA fold change Nrf1 (mAPP N2a cells; [3]): 2.1** fold
- mRNA fold change Nrf2 (mAPP N2a cells; [3]): 2.1** fold
- mRNA fold change PGC1a (mAPP N2a cells; [3]): 2.0** fold
- mRNA fold change PSD95 (mAPP N2a cells; [3]): 1.8* fold
- mRNA fold change Synaptophysin (mAPP N2a cells; [3]): 1.9* fold
- mRNA fold change TFAM (mAPP N2a cells; [3]): 1.8* fold
- mRNA fold change APP (mAPP N2a cells; [4]): −1.5* fold
- mRNA fold change BACE1 (mAPP N2a cells; [4]): −1.4* fold
- mRNA fold change Drp1 (mAPP N2a cells; [4]): −2.3** fold
- mRNA fold change Fis1 (mAPP N2a cells; [4]): −1.5* fold
- mRNA fold change Presenilin1 (mAPP N2a cells; [4]): −1.5* fold
- mRNA fold change APP (mAPP N2a cells; [5]): 1.3 fold
- mRNA fold change BACE1 (mAPP N2a cells; [5]): 1.1 fold
- mRNA fold change Drp1 (mAPP N2a cells; [5]): 1.1 fold
- mRNA fold change Fis1 (mAPP N2a cells; [5]): 1.0 fold
- mRNA fold change Mfn1 (mAPP N2a cells; [5]): −1.2 fold
- mRNA fold change Mfn2 (mAPP N2a cells; [5]): 1.1 fold
- mRNA fold change Nrf1 (mAPP N2a cells; [5]): 1.2 fold
- mRNA fold change Nrf2 (mAPP N2a cells; [5]): 1.4 fold
- mRNA fold change OPA1 (mAPP N2a cells; [5]): 1.1 fold
- mRNA fold change PGC1a (mAPP N2a cells; [5]): 1.2 fold
- mRNA fold change PSD95 (mAPP N2a cells; [5]): 1.3 fold
- mRNA fold change Presenilin1 (mAPP N2a cells; [5]): −1.2 fold
- mRNA fold change Synaptophysin (mAPP N2a cells; [5]): 1.3 fold
- mRNA fold change TFAM (mAPP N2a cells; [5]): 1.5 fold
- APP mRNA, fold decreased (mAPP N2a cells; [6]): 1.5 fold
- BACE1 mRNA, fold decreased (mAPP N2a cells; [6]): 1.4
- PSN1 mRNA, fold decreased (mAPP N2a cells; [6]): 1.5
- Drp1 mRNA, fold reduced (mAPP N2a cells; mAPP+ligand 1 treated cells relative to mAPP cells, size of the decrease, P<0.005): 2.3 fold
- Fis1 mRNA, fold reduced (mAPP N2a cells; mAPP+ligand 1 treated cells relative to mAPP cells, size of the decrease, P<0.05): 1.5 fold
